From ChEMBL document CHEMBL3259812, “Structural modifications of 4-aryl-4-oxo-2-aminylbutanamides and their acetyl- and butyrylcholinesterase inhibitory activity. Investigation of AChE-ligand interactions by docking calculations and molecular dynamics simulations” (Eur J Med Chem, 2014)
Calls of active or inactive are those of the source. No cut-off for these calls is given here.

Legend:
[1] = target: Cholinesterase (Equus caballus) (UniProt P81908); experiment: Inhibition of horse serum BChE using butyrylthiocholine iodide as substrate assessed as residual activity at 10 uM preincubated for 35 mins followed by enzyme addition measured after 3 mins by Ellman's method relative to control
Chain of Cholinesterase (Equus caballus) (P81908 whole entry): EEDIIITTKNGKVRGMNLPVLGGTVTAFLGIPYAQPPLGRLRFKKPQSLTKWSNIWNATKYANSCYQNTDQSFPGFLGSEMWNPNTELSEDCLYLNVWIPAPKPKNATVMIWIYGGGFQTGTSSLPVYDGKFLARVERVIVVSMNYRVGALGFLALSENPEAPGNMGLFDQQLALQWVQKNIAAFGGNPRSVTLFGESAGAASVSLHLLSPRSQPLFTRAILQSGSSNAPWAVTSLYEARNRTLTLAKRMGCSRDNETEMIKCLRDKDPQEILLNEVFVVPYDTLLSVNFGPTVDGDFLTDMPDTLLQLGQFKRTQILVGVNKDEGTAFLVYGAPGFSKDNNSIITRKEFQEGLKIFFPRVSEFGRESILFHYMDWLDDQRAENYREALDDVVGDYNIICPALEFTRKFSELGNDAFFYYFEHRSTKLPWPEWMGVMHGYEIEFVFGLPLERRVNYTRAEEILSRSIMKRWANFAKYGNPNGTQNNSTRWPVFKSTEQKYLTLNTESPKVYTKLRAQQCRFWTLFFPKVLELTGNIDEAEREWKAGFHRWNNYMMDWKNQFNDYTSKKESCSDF

Electrophorus electricus [2] = experiment: Inhibition of electric eel acetylcholinesterase type VI-S using acetylthiocholine iodide as substrate assessed as residual activity at 25 uM preincubated for 35 mins followed by enzyme addition measured after 3 mins by Ellman's method relative to control
[3] = target: Cholinesterase (Equus caballus) (UniProt P81908); experiment: Inhibition of horse serum BChE using butyrylthiocholine iodide as substrate assessed as residual activity at 20 uM preincubated for 35 mins followed by enzyme addition measured after 3 mins by Ellman's method relative to control
Cholinesterase [4] = target: T1, Cholinesterase (Equus caballus, UniProt P81908)
T1 sequence (P81908 whole entry): as above
Description: (§1) Inhibition of horse serum BChE using butyrylthiocholine iodide as substrate preincubated for 35 mins followed by enzyme addition measured after 3 mins by Ellman's method

Electrophorus electricus [5] = experiment: Inhibition of electric eel acetylcholinesterase type VI-S using acetylthiocholine iodide as substrate assessed as residual activity at 15 uM preincubated for 35 mins followed by enzyme addition measured after 3 mins by Ellman's method relative to control
Electrophorus electricus [6] = experiment: Reversible inhibition of electric eel acetylcholinesterase type VI-S using acetylthiocholine iodide as substrate by Lineweaver-Burk plot analysis
[7] = Mixed type inhibition of electric eel acetylcholinesterase type VI-S using acetylthiocholine iodide as substrate assessed as enzyme-inhibitor complex by Lineweaver-Burk plot analysis; design: species or system Electrophorus electricus
Electrophorus electricus [8] = experiment: Inhibition of electric eel acetylcholinesterase type VI-S using acetylthiocholine iodide as substrate assessed as residual activity at 20 uM preincubated for 35 mins followed by enzyme addition measured after 3 mins by Ellman's method relative to control
Cholinesterase [9] = target: T1, Cholinesterase; remark: listed apart in the source
Description: as §1

[10] = target: Cholinesterase (Equus caballus) (UniProt P81908); experiment: Inhibition of horse serum BChE using butyrylthiocholine iodide as substrate assessed as residual activity at 40 uM preincubated for 35 mins followed by enzyme addition measured after 3 mins by Ellman's method relative to control
Electrophorus electricus [11] = experiment: Inhibition of electric eel acetylcholinesterase type VI-S using acetylthiocholine iodide as substrate assessed as residual activity at […] preincubated for 35 mins followed by enzyme addition measured after 3 mins by Ellman's method relative to control
[12] = Stability of the compound; type: physicochemical
[13] = target: Cholinesterase (Equus caballus) (UniProt P81908); experiment: Inhibition of horse serum BChE using butyrylthiocholine iodide as substrate assessed as residual activity at 15 uM preincubated for 35 mins followed by enzyme addition measured after 3 mins by Ellman's method relative to control
[14] = target: Cholinesterase (Equus caballus) (UniProt P81908); experiment: Inhibition of horse serum BChE using butyrylthiocholine iodide as substrate assessed as residual activity at 30 uM preincubated for 35 mins followed by enzyme addition measured after 3 mins by Ellman's method relative to control
Electrophorus electricus [15] = experiment: Inhibition of electric eel acetylcholinesterase type VI-S using acetylthiocholine iodide as substrate assessed as residual activity at 8.5 uM preincubated for 35 mins followed by enzyme addition measured after 3 mins by Ellman's method relative to control

## CC(C)c1ccc(C(=O)CC(C(=O)NC2CCCCC2)N2CCOCC2)cc1 (racemic)
[1]
  Activity: 46.8%
Electrophorus electricus [2]
  Activity: 85.1%

## CN1CCN(C(CC(=O)c2cccc3c2CCCC3)C(=O)NC2CCCCC2)CC1 (racemic)
[3]
  Activity: 56.7%

## CC(C)c1ccc2c(c1C(=O)CC(C(=O)NC1CCCCC1)n1ccnc1)CCCC2 (racemic)
[3]
  Activity: 52.2%

## O=C(CC(C(=O)NC1CCCCC1)N1CCOCC1)c1cccc2c1CCCC2 (racemic)
Cholinesterase [4]
  IC50: ND(Insoluble)

## CC(C)c1ccc2c(c1C(=O)CC(C(=O)NC1CCCCC1)N1CCCCC1)CCCC2 (racemic)
[3]
  Activity: 61.5%

## CC(C)c1ccc(C(=O)CC(C(=O)NC2CCCCC2)N2CCCCC2)cc1 (racemic)
[3]
  Activity: 65%
Electrophorus electricus [5]
  Activity: 63.1%

## CC(C)c1ccc(NC(=O)C(CC(=O)c2ccc(C(C)C)cc2C(C)C)N2CCCCC2)cc1 (racemic)
Electrophorus electricus [6]
  inhibition: Active
[7]
  Ki: 0.52 µM
Cholinesterase [4]
  IC50: ND(Insoluble)

## COc1cc(NC(=O)C(CC(=O)c2ccc(C(C)C)cc2)N2CCN(C)CC2)cc(OC)c1 (racemic)
Electrophorus electricus [8]
  Activity: 76.7%
Cholinesterase [9]
  IC50: > 20 µM

## COc1cc(NC(=O)C(CC(=O)c2ccc(C(C)C)cc2)n2ccnc2)cc(OC)c1 (racemic)
Cholinesterase [9]
  IC50: > 20 µM

## CC(C)c1ccc(C(=O)CC(C(=O)Nc2ccccc2)N2CCOCC2)cc1 (centres undefined)
[10]
  Activity: 72.8%

## COc1ccc(NC(=O)C(CC(=O)c2ccc(C(C)C)cc2C(C)C)N2CCOCC2)cc1OC (racemic)
[1]
  Activity: 62.4%

## CC(C)c1ccc2c(c1C(=O)CC(C(=O)NC1CCCCC1)N1CCOCC1)CCCC2 (racemic)
[3]
  Activity: 75.2%

## CC(C)c1ccc(C(=O)CC(C(=O)NC2CCCCC2)N2CCCCC2)c(C(C)C)c1 (racemic)
[3]
  Activity: 72.7%

## CC(C)c1ccc(NC(=O)C(CC(=O)c2ccc(C(C)C)cc2C(C)C)n2ccnc2)cc1 (racemic)
Cholinesterase [9]
  IC50: > 20 µM

## O=C(CC(C(=O)Nc1ccccc1)N1CCOCC1)c1cccc2c1CCCC2 (centres undefined)
[10]
  Activity: 87%

## CC(C)c1ccc(C(=O)CC(C(=O)NC2CCCCC2)n2ccnc2)cc1 (racemic)
[3]
  Activity: 76%
Electrophorus electricus [5]
  Activity: 65.3%

## COc1cc(NC(=O)C(CC(=O)c2ccc(C(C)C)cc2)N2CCN(CCN(C)C)CC2)cc(OC)c1 (racemic)
Cholinesterase [9]
  IC50: > 20 µM

## O=C(CC(C(=O)Nc1ccccc1)n1ccnc1)c1cccc2c1CCCC2 (centres undefined)
[10]
  Activity: 83%

## CC(C)c1ccc(C(=O)CC(C(=O)Nc2ccccc2)N2CCC(Cc3ccccc3)CC2)cc1 (racemic)
Cholinesterase [9]
  IC50: > 20 µM

## CC(C)c1ccc(NC(=O)C(CC(=O)c2ccc(C(C)C)cc2C(C)C)N2CCN(C)CC2)cc1 (racemic)
Cholinesterase [9]
  IC50: 0.74 µM
Electrophorus electricus [11]
  Activity: 43.6%

## CC(C)c1ccc(NC(=O)C(CC(=O)c2ccc(C(C)C)cc2)N2CCCCC2)cc1 (racemic)
[12]
  Stability: Unstable

## CC(C)c1ccc(NC(=O)C(CC(=O)c2cccc3c2CCCC3)n2ccnc2)cc1 (racemic)
Cholinesterase [9]
  IC50: > 20 µM

## CC(C)c1ccc(NC(=O)C(CC(=O)c2ccc(C(C)C)cc2)n2ccnc2)cc1 (racemic)
Cholinesterase [9]
  IC50: > 20 µM

## CC(C)c1ccc(NC(=O)C(CC(=O)c2ccc(C(C)C)cc2)N2CCOCC2)cc1 (racemic)
Cholinesterase [9]
  IC50: > 20 µM

## CC(C)c1ccc(NC(=O)C(CC(=O)c2ccc(C(C)C)cc2)N2CCN(C)CC2)cc1 (racemic)
[13]
  Activity: 72.4%

## CC(C)c1ccc2c(c1C(=O)CC(C(=O)NC1CCCCC1)N1CCN(C)CC1)CCCC2 (racemic)
[3]
  Activity: 39.1%

## CC(C)c1ccc(NC(=O)C(CC(=O)c2cccc3c2CCCC3)N2CCCCC2)cc1 (racemic)
Cholinesterase [4]
  IC50: ND(Insoluble)

## CC(C)c1ccc(C(=O)CC(C(=O)NC2CCCCC2)N2CCN(C)CC2)cc1 (racemic)
[3]
  Activity: 66.2%
Electrophorus electricus [2]
  Activity: 86.2%

## O=C(CC(C(=O)Nc1ccccc1)N1CCCCC1)c1cccc2c1CCCC2 (centres undefined)
[13]
  Activity: 78.5%

## CC(C)c1ccc(C(=O)CC(C(=O)Nc2ccccc2)n2ccnc2)cc1 (centres undefined)
[14]
  Activity: 90%

## COc1ccc(NC(=O)C(CC(=O)c2ccc(C(C)C)cc2C(C)C)N2CCCCC2)cc1OC (racemic)
Cholinesterase [9]
  IC50: > 7.5 µM

## COc1ccc(NC(=O)C(CC(=O)c2ccc(C(C)C)cc2C(C)C)n2ccnc2)cc1OC (racemic)
[3]
  Activity: 78.4%

## O=C(CC(C(=O)NC1CCCCC1)N1CCCCC1)c1cccc2c1CCCC2 (racemic)
Cholinesterase [9]
  IC50: > 20 µM

## COc1cc(NC(=O)C(CC(=O)c2ccc(C(C)C)cc2)N2CCCCC2)cc(OC)c1 (racemic)
[12]
  Stability: Unstable

## COc1cc(NC(=O)C(CC(=O)c2ccc(C(C)C)cc2)N2CCOCC2)cc(OC)c1 (racemic)
Cholinesterase [9]
  IC50: > 20 µM

## CC(C)c1ccc(C(=O)CC(C(=O)NC2CCCCC2)N2CCN(C)CC2)c(C(C)C)c1 (racemic)
Cholinesterase [9]
  IC50: 2.25 µM

## CC(C)c1ccc(C(=O)CC(C(=O)NC2CCCCC2)n2ccnc2)c(C(C)C)c1 (racemic)
[3]
  Activity: 65.8%

## CC(C)c1ccc(NC(=O)C(CC(=O)c2cccc3c2CCCC3)N2CCOCC2)cc1 (racemic)
Cholinesterase [9]
  IC50: > 15 µM

## O=C(CC(C(=O)NC1CCCCC1)n1ccnc1)c1cccc2c1CCCC2 (racemic)
Cholinesterase [9]
  IC50: > 20 µM

## CC(C)c1ccc(NC(=O)C(CC(=O)c2ccc(C(C)C)cc2C(C)C)N2CCOCC2)cc1 (racemic)
[1]
  Activity: 73.6%
Electrophorus electricus [11]
  Activity: 44.4%

## CC(C)c1ccc(NC(=O)C(CC(=O)c2cccc3c2CCCC3)N2CCN(C)CC2)cc1 (racemic)
Electrophorus electricus [15]
  Activity: 86.5%
Cholinesterase [9]
  IC50: 10.8 µM

## CC(C)c1ccc(C(=O)CC(C(=O)Nc2ccccc2)N2CCCCC2)c(C(C)C)c1 (centres undefined)
[13]
  Activity: 60.1%

## COc1ccc(NC(=O)C(CC(=O)c2ccc(C(C)C)cc2C(C)C)N2CCN(C)CC2)cc1OC (racemic)
Cholinesterase [9]
  IC50: 5.26 µM

## CC(C)c1ccc(C(=O)CC(C(=O)NC2CCCCC2)N2CCOCC2)c(C(C)C)c1 (centres undefined)
Cholinesterase [9]
  IC50: > 20 µM
